Data as given in US8076449B2, “Therapeutic agents of colivelin for neurodegenerative diseases” (Tomohiro Chiba, priority 2004, dated 2011).
“Also recorded” adds a separate entry of the source. Ends that are not written are not given here.

Legend:
G93A-SOD1 Tg mice = assay: In vivo effect on ALS mice: onset, survival, rotarod (Example 5); parameters: species or system mouse
Protocol: Mice treated with a control (n=16), ADNF (n=15), AGA-C8R-HNG17 (n=14), or colivelin (n=13) were compared by the Kaplan-Meier life test. In addition, the average day of death was compared (FIG. 8c), wherein statistical analysis was conducted by one-way ANOVA, followed by Fischer's PLSD test (**p<0.01). The motor function was evaluated by a rotarod test (FIG. 8d). Mice icy-administered with a control (n=13), ADNF (n=14), AGA-C8R-HNG17 (n=14), or colivelin (n=12) were placed onto a rotating rod at a speed of 5 rpm and observed over max 420 seconds, wherein statistical analysis was conducted by repeatedly measured ANOVA and Fischer's PLSD test.
Cannulas were fixed under aseptic conditions to the left lateral ventricles of G93A-SOD1 Tg mice (ALS model mice, 70-day-old). Colivelin ([…] in 3 μl of saline per two days) was icy-injected through the cannulas to compare its protective effect with those of the same amount of ADNF and AGA-C8R-HNG17 (FIG. 8).
The 1-onset (FIG. 8a) and survival (FIG. 8b) of mice treated with a control (n=16), ADNF (n=15), AGA-C8R-HNG17 (n=14), or colivelin (n=13) were compared by the Kaplan-Meier life test. As a result, the colivelin-treated group completely delayed ALS onset up to approximately 114 days, as compared with the ADNF-treated group (approximately 106 days) and the AGA-C8R-HNG17-treated group (approximately 108 days). Regarding survival as well, the colivelin-treated group prolonged the life span of 100% of the mice up to approximately 145 days, as compared with the ADNF-treated group (approximately 133 days) and the AGA-CBR-HNG17-treated group (approximately 138 days). Average age at death was longest in the colivelin-treated mice and was approximately 153 days (FIG. 8c).
Additionally, the motor function was evaluated by the rotarod test (FIG. 8d). Mice treated with a control (n=13), ADNF (n=14), AGA-C8R-HNG17 (n=14), or colivelin (n=12) were placed onto a rotating rod at a speed of 5 rpm and observed over max 420 seconds, wherein statistical analysis was conducted by ANOVA and Fischer's PLSD test.

[1] = system: F11 cells transformed with M146L-PS1; assay: M146L-PS1-induced neuronal cell death in the presence of ADNF, Trypan blue exclusion assay; assay type: cell-based, rat/mouse hybrid; details: for concentration completely suppressing M146L-PS1-induced cell death in the presence of ADNF: in the presence of 100 nM ADNF, 72 hours
Protocol: The protective effect of colivelin and ADNF used together against neuronal cell death induced by M146L-PS1 was examined. F11 cells were transformed with M146L-PS1 in the presence or absence of […] and treated with varying concentrations (100 aM, 1 fM, 10 fM, 100 fM, 1 pM, 10 pM, 100 pM, 1 nM, 10 nM, or 100 nM) of colivelin or AGA-C8R-HNG17.
After 72 hours of the transformation, cell mortality was measured by Trypan blue exclusion assay (FIG. 4). Approximately 50% of the neuronal cells died after the transformation with mutant PS1 gene, whereas only 10% of the untreated or empty vector-transformed cells died. […] When the M146L-PS1-transformed neuronal cells in the presence of 100 nM ADNF were treated with 10 pM colivelin, the neuronal cells died at a rate equal to that of the untreated (No) or empty vector (vec)-transformed cells.

[2] = system: primary cultured cortical neurons treated with Aβ (1-43); assay: Neuronal cell death induced by Aβ (1-43) peptide, WST-8 and calcein cell viability assays; assay type: cell-based, mouse
Protocol: (ii) Test of Neuronal Cell Death Induced by Aβ (1-43) Peptide
Mouse cortical neurons were primarily cultured on a poly-D-lysine-coated 96-well plate (Sumitomo Bakelite, Akita, Japan) in the absence of serum and the presence of N2 […] according to the previous report (Sudo et al., 2000, Mol. Cell. Neurosci., 16: 708-723). The purity of the neurons by this method was 98% or more. The prepared neurons (5.0×10^4 cells/well, 100 μl of medium/well) were cultured for 72 hours in the presence or absence of varying concentrations (100 aM, 1 fM, 10 fM, 100 fM, 1 pM, 10 pM, 100 pM, 1 nM, 10 nM, or 100 nM) of colivelin or AGA-C8R-HNG17 peptide. Since primary cultured neurons temporarily become fragile during medium replacement, the neurons were treated with 25 μM Aβ as follows: at first, a half volume (50 μl) of the old medium was discarded. Next, 50 μM Aβ and 50 μl of prewarmed fresh medium containing varying concentrations of colivelin or AGA-CBR-HNG17 peptides were added to the culture. Aβ (1-43) was purchased from Peptide Institute. The Aβ peptides used at the concentration of 25 μM for inducing neuronal cell death formed aggregation in the medium during 72-hour cell culture at 37° C. (Hashimoto Y, et al., 2001, J Neurosci 21: 9235-9245).
WST-8 cell viability assay was conducted with Cell Counting Kit-8 according to the previous report (Hashimoto Y, et al, 2001, Proc Natl Acad Sci USA 98: 6336-6341).
Calcein assay was conducted with calcein-AM (Dojindo, Kumamoto, Japan) according to the previous report (Hashimoto Y, et al., 2001, J Neurosci 21: 9235-9245).
These assays were simultaneously performed. After 72 hours of the Aβ treatment, the cells were added to a mixture of 10 μl of WST-8 solution and 1 μl of 600 μM calcein-AM and cultured at 37° C. for 2 hours in a CO2 incubator to measure a WST-8 absorption at O.D. 450. To decrease background, the medium was replaced by phosphate-buffered saline, followed by the measurement of calcein-specific fluorescence (excitation: 485 nm, emission: 535 nm) by fluorescence microcopy or with a spectrofluorometer (Wallac 1420 ARVOsx Multi Label Counter; Perkin Elmer, Wellesley, Mass., USA).

[3] = 10 μmol in 3 μl of saline per two days, icv
[4] = Aβ (1-43)-induced neuronal cell death

| Sequence | ALS onset completely delayed up to (Kaplan-Meier) (G93A-SOD1 Tg mice; [3]) | life span of 100% of the mice prolonged up to (Kaplan-Meier survival) (G93A-SOD1 Tg mice; [3]) | concentration completely suppressing M146L-PS1-induced cell death in the presence of ADNF [1] [pM] | concentration achieving complete protection ([2]; 25 μM Aβ (1-43), 72 hours) [fM] | EC50 ([2]; 25 μM Aβ (1-43), 72 hours, WST-8, read-out: concentration at which half of the neurons were rescued) [pM] | effect of ADNF itself on cell death ([1]; 100 nM ADNF alone) | concentration at or over which protective activity attenuated ([2]; Aβ (1-43) toxicity) [nM] | average age at death (G93A-SOD1 Tg mice; [3]) | motor function by rotarod test (G93A-SOD1 Tg mice; 5 rpm, max 420 seconds, icv treatment) | activity level with 100 nM ADNF relative to that without ADNF ([1]; M146L-PS1, 10 pM with ADNF versus without) | potency relative to AGA-C8R-HNG17 [2, 4] [fold] | potency relative to HNG [2, 4] | protective activity at high concentration ([2]; at 100 nM) |
| --- | --- | --- | --- | --- | --- | --- | --- | --- | --- | --- | --- | --- | --- |
| PAGASRLLLLTGEIDLP [AGA-C8R-HNG17, Pro-Ala-Gly-Ala-Ser-Arg-Leu-Leu-Leu-Leu-Thr-Gly-Glu-Ile-Asp-Leu-Pro, reference compound] | approximately 108 days | approximately 138 days | 10 | 10000 | 1 | – | – | – | – | – | – | – | – |
| SALLRSIPA [ADNF, reference compound] | approximately 106 days | approximately 133 days | – | 100 | – | Neither general cell death nor M146L-PS1-induced neuronal cell death was affected | ≥ 1 | – | – | – | – | – | – |
| SALLRSIPAPAGASRLLLLTGEIDLP [colivelin] | approximately 114 days | approximately 145 days | 10 | 100 | – | – | – | approximately 153 days | ameliorated most; also recorded: significantly better | 1/100 | 100 | 100,000 fold | did not disappear |
